Where a name gives a salt, the structure may show the parent alone.
How the values were obtained:
[1] = target: T1, Na-Pi cotransporter (Mus musculus, UniProt Q60825); experiment: Na+-gradient-dependent 32Pi uptake by renal BBMV, mouse; type: biochemical
T1 construct: were prepared from renal cortices of mongrel dogs, albino mice and New Zealand albino rabbits; from tissue; host or cells: albino mouse renal cortex, brush border membrane vesicles
T1 sequence (Q60825 1-637): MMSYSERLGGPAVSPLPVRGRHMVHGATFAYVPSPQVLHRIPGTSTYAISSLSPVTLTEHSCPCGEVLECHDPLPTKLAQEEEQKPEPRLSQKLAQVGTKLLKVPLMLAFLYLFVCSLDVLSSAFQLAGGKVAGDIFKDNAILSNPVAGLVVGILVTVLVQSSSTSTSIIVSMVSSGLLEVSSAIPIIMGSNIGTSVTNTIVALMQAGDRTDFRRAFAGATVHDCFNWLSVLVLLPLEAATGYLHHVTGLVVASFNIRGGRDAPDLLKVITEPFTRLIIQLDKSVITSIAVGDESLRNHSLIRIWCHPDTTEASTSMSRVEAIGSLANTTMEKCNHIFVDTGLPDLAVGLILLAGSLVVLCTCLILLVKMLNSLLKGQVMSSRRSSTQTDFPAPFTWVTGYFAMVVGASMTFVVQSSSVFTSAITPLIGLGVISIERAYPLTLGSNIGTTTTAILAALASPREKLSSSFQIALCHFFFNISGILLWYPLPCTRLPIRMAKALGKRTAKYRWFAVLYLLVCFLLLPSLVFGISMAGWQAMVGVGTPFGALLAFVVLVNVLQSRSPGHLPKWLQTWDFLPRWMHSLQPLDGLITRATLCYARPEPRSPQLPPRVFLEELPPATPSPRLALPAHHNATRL
Protocol: (§1) The brush border membrane vesicles (BBMV) were prepared from renal cortical tissue of adult male Sprague-Dawley rats of an average body weight of about 220 grams. Rats were fed ad libitum standard rat chow containing 0.7% Pi and had free access to distilled water. Rats were sacrificed under anesthesia and dissected renal cortical tissue was used for preparation of BBMV fraction by the divalent cation-precipitation procedure, employed and described in detail in J. Clin. Invest., 67, 1347 (1981) and J. Biol. Chem., 258, 5695 (1983), with the following modifications: (a) MgCl2 instead of CaCl2 was added to crude homogenate (final concentration 10 mM MgCl2) to precipitate membranes other than BBMV; (b) in the final step, BBMV were washed and equilibrated in a medium of pH=7.5, instead of pH=8.5. The enrichment and specific activities of typical BBM enzymes alkaline phosphatase (APases), γ-glutyamyl transferase (γ-GTT), leucineaminopeptidase (LAP) and maltase with use of these modifications were similar as in BBMV fractions prepared in our previous studies. As a final step in the preparative procedure, the BBMV fraction was washed and resuspended in a medium containing 300 mM mannitol and 5 mM Tris-HEPES adjusted to pH=t.5, referred to as "MTH-medium," unless specified otherwise. The analogous BBMV fractions, using the same procedure, were prepared from renal cortices of mongrel dogs, albino mice and New Zealand albino rabbits.
(§2) The BBMV uptake of ^32 Pi, D-[^3 H]-glucose, L-[^3 H]-proline and ^22 Na^+ was measured by means of a rapid filtration technique, as described in J. Clin. Invest., 67, 1347 (1981) and Am. J. Physiol., 246, F133-F139 (1984). Also, unless specified otherwise, the medium for the solute uptake assay consisted of following compounds (in final concentrations): 100 mM mannitol, 100 mM NaCl (or 100 mM KC1) and 5 mM Tris-HEPES (pH=7.5) and eitehr 0.1 mM K2 H^32 PO4, or 0.05 mM D-[^3 H]-glucose, or 0.025 mM L-[^3 H]-proline. IN the ^22 Na^+ uptake studies, the assay medium contained 100 mM ^22 NaCl (^22 NaCl about […] per tube), 100 mM mannitol and 5 mM Tris-HEPES (pH 7.5).
(§3) In most experiments, the Na^+ -gradient-dependent ^32 Pi uptake in the concentrative "uphill" phase was measured at 20 seconds period. Since Na^+ -independent Pi uptake in this time period was quantitatively minor component (<5%) of the Na^+ -gradient-dependent Pi uptake, it was not routinely subtracted.

[2] = target: T2, Na-Pi cotransporter (Oryctolagus cuniculus, UniProt Q28620); experiment: Na+-gradient-dependent 32Pi uptake by renal BBMV, rabbit; type: biochemical
T2 construct: were prepared from renal cortices of mongrel dogs, albino mice and New Zealand albino rabbits; from tissue; host or cells: New Zealand albino rabbit renal cortex, brush border membrane vesicles
T2 sequence (Q28620 1-642): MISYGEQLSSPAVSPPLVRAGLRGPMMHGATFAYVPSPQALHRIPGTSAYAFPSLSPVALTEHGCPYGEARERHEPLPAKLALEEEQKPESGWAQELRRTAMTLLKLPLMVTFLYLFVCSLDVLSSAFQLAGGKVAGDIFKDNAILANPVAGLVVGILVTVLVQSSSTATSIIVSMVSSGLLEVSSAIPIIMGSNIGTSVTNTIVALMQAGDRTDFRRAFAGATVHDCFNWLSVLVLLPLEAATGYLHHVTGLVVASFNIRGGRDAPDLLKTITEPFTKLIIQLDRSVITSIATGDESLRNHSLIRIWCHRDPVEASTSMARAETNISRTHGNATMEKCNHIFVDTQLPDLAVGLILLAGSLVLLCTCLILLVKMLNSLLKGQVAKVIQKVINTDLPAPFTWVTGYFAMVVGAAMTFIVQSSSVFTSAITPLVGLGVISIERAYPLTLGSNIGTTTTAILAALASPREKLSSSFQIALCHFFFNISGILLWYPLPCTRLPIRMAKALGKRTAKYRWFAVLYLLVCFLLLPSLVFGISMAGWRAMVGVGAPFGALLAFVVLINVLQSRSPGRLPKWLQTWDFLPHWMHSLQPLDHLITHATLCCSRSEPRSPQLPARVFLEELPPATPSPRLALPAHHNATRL
Protocol: as §1, §2, §3

[3] = test system: D-[^3 H]-glucose uptake by BBMV; experiment: Na+-gradient-dependent uptake of D-[3H]-glucose by renal BBMV; type: biochemical, rat; conditions: 1 mM TPFA; mean ± SEM, n=4; control 66±15
Protocol: as §1, with “As a final step in the preparative procedure, the BBMV fraction was washed and resuspended in a medium containing 300 mM mannitol and 5 mM Tris-HEPES adjusted to pH=t.5, referred to as "MTH-medium," unless specified otherwise. The analogous BBMV fractions, using the same procedure, were prepared from renal cortices of mongrel dogs, albino mice and New Zealand albino rabbits.” left out
The BBMV uptake of ^32 Pi, D-[^3 H]-glucose, L-[^3 H]-proline and ^22 Na^+ was measured by means of a rapid filtration technique, as described in J. Clin. Invest., 67, 1347 (1981) and Am. […]

[4] = target: T3, (Na-K)ATPase (Rattus norvegicus, UniProt P06685); experiment: Effect on BaLM enzyme (Na-K)ATPase (data not shown); type: biochemical
T3 construct: from tissue; host or cells: basolateral membrane, kidney (tissue and rat inferred)

[5] = in vivo; cited from earlier work
[6] = 20 s, 1 mM TPFA, read-out: percent decrease of 20 sec 32Pi-uptake relative to control value
[7] = 20 s, 5 mM TPFA, read-out: percent decrease of 20 sec 32Pi-uptake relative to control value

SMILES: O=C(O)P(=O)(O)O [TPFA, Phosphonoformic acid, trisodium salt hexahydrate]
- 32Pi-uptake 120 min ([1]; 1 mM TPFA, control 368 ± 7): 390 ± 74 pmoles Pi/mg protein/time
- 32Pi-uptake 20 sec ([1]; 1 mM TPFA, control 824 ± 9): 299 ± 8 pmoles Pi/mg protein/time
- 32Pi-uptake 20 sec ([1]; 5 mM TPFA): 97 ± 7 pmoles Pi/mg protein/time
- 32Pi-uptake 120 min ([1]; 5 mM TPFA): 404 ± 12 pmoles Pi/mg protein/time
- inhibition at 1000 µM [1, 6]: 63.7%
- inhibition at 5000 µM [1, 7]: 88.2%
- 32Pi-uptake 120 min ([2]; 1 mM TPFA, control 551 ± 15): 532 ± 19 pmoles Pi/mg protein/time
- 32Pi-uptake 20 sec ([2]; 1 mM TPFA, control 768 ± 7): 279 ± 4 pmoles Pi/mg protein/time
- 32Pi-uptake 20 sec ([2]; 5 mM TPFA): 107 ± 5 pmoles Pi/mg protein/time
- 32Pi-uptake 120 min ([2]; 5 mM TPFA): 549 ± 11 pmoles Pi/mg protein/time
- inhibition at 1000 µM [2, 6]: 63.7%
- inhibition at 5000 µM [2, 7]: 86.1%
- uptake of D-[3H]-glucose at 120 minutes [3]: 65±12 pmoles/mg protein
- effect on BaLM enzyme (Na-K)ATPase [4]: without inhibitory effect
- toxic effects on bone in general toxicity studies [5]: not toxic effects on bone

— patent publication US4806532A, “Inhibition of epithelial phosphate transport” (Mayo Foundation for Medical Education and Research, priority 1985, dated 1989)
